Test results from ChEMBL document CHEMBL1148995, “Antitumor agents from bohemic acid complex, VI. Schaunardimycin” (J Nat Prod, 1984).

Legend:
[1] = test system: Mus musculus; experiment: Toxicity in mouse L1210 cells implanted CDF1 mouse assessed as average weight gain at 12.8 mg/kg, ip single dose on day 1; format: organism-based; design: dose 12.8 mg/kg, route intraperitoneal; details: in vivo
[2] = test system: Mus musculus; experiment: Toxicity in mouse L1210 cells implanted CDF1 mouse assessed as average weight gain at 6.4 mg/kg, ip single dose on day 1; format: organism-based; design: dose 6.4 mg/kg, route intraperitoneal; details: in vivo
[3] = test system: Mus musculus; experiment: Toxicity in mouse L1210 cells implanted CDF1 mouse assessed as average weight gain at 3.2 mg/kg, ip single dose on day 1; format: organism-based; design: dose 3.2 mg/kg, route intraperitoneal; details: in vivo
[4] = test system: Mus musculus; experiment: Toxicity in mouse L1210 cells implanted CDF1 mouse assessed as average weight gain at 1.6 mg/kg, ip single dose on day 1; format: organism-based; design: dose 1.6 mg/kg, route intraperitoneal; details: in vivo
[5] = test system: Mus musculus; experiment: Toxicity in mouse L1210 cells implanted CDF1 mouse assessed as average weight gain at 0.8 mg/kg, ip single dose on day 1; format: organism-based; design: dose 0.8 mg/kg, route intraperitoneal; details: in vivo
[6] = test system: Mus musculus; experiment: Toxicity in mouse L1210 cells implanted CDF1 mouse assessed as average weight gain at 0.4 mg/kg, ip single dose on day 1; format: organism-based; design: dose 0.4 mg/kg, route intraperitoneal; details: in vivo
[7] = test system: Mus musculus; experiment: Toxicity in mouse L1210 cells implanted CDF1 mouse assessed as average weight gain at 0.2 mg/kg, ip single dose on day 1; format: organism-based; design: dose 0.2 mg/kg, route intraperitoneal; details: in vivo
[8] = test system: Mus musculus; experiment: Toxicity in mouse L1210 cells implanted CDF1 mouse assessed as average weight gain at 6.4 mg/kg, ip qd for 1 to 5 days; format: organism-based; design: dose 6.4 mg/kg, route intraperitoneal; details: in vivo
[9] = test system: Mus musculus; experiment: Toxicity in mouse L1210 cells implanted CDF1 mouse assessed as average weight gain at 3.2 mg/kg, ip qd for 1 to 5 days; format: organism-based; design: dose 3.2 mg/kg, route intraperitoneal; details: in vivo
[10] = test system: Mus musculus; experiment: Toxicity in mouse L1210 cells implanted CDF1 mouse assessed as average weight gain at 1.6 mg/kg, ip qd for 1 to 5 days; format: organism-based; design: dose 1.6 mg/kg, route intraperitoneal; details: in vivo
[11] = test system: Mus musculus; experiment: Toxicity in mouse L1210 cells implanted CDF1 mouse assessed as average weight gain at 0.8 mg/kg, ip qd for 1 to 5 days; format: organism-based; design: dose 0.8 mg/kg, route intraperitoneal; details: in vivo
[12] = test system: Mus musculus; experiment: Toxicity in mouse L1210 cells implanted CDF1 mouse assessed as average weight gain at 0.4 mg/kg, ip qd for 1 to 5 days; format: organism-based; design: dose 0.4 mg/kg, route intraperitoneal; details: in vivo
[13] = test system: Mus musculus; experiment: Toxicity in mouse L1210 cells implanted CDF1 mouse assessed as average weight gain at 0.2 mg/kg, ip qd for 1 to 5 days; format: organism-based; design: dose 0.2 mg/kg, route intraperitoneal; details: in vivo
[14] = test system: Mus musculus; experiment: Toxicity in mouse L1210 cells implanted CDF1 mouse assessed as survivors on day 5 at 25.6 mg/kg, ip single dose on day 1; format: organism-based; design: dose 25.6 mg/kg, route intraperitoneal; details: in vivo
[15] = test system: Mus musculus; experiment: Toxicity in mouse L1210 cells implanted CDF1 mouse assessed as survivors on day 5 at 12.8 mg/kg, ip single dose on day 1; format: organism-based; design: dose 12.8 mg/kg, route intraperitoneal; details: in vivo
[16] = test system: Mus musculus; experiment: Toxicity in mouse L1210 cells implanted CDF1 mouse assessed as survivors on day 5 at 6.4 mg/kg, ip single dose on day 1; format: organism-based; design: dose 6.4 mg/kg, route intraperitoneal; details: in vivo
[17] = test system: Mus musculus; experiment: Toxicity in mouse L1210 cells implanted CDF1 mouse assessed as survivors on day 5 at 3.2 mg/kg, ip single dose on day 1; format: organism-based; design: dose 3.2 mg/kg, route intraperitoneal; details: in vivo
[18] = test system: Mus musculus; experiment: Toxicity in mouse L1210 cells implanted CDF1 mouse assessed as survivors on day 5 at 1.6 mg/kg, ip single dose on day 1; format: organism-based; design: dose 1.6 mg/kg, route intraperitoneal; details: in vivo
[19] = test system: Mus musculus; experiment: Toxicity in mouse L1210 cells implanted CDF1 mouse assessed as survivors on day 5 at 0.8 mg/kg, ip single dose on day 1; format: organism-based; design: dose 0.8 mg/kg, route intraperitoneal; details: in vivo
[20] = test system: Mus musculus; experiment: Toxicity in mouse L1210 cells implanted CDF1 mouse assessed as survivors on day 5 at 0.4 mg/kg, ip single dose on day 1; format: organism-based; design: dose 0.4 mg/kg, route intraperitoneal; details: in vivo
[21] = test system: Mus musculus; experiment: Toxicity in mouse L1210 cells implanted CDF1 mouse assessed as survivors on day 5 at 0.2 mg/kg, ip single dose on day 1; format: organism-based; design: dose 0.2 mg/kg, route intraperitoneal; details: in vivo
[22] = test system: Mus musculus; experiment: Toxicity in mouse L1210 cells implanted CDF1 mouse assessed as survivors on day 5 at 6.4 mg/kg, ip qd for 1 to 5 days; format: organism-based; design: dose 6.4 mg/kg, route intraperitoneal; details: in vivo
[23] = test system: Mus musculus; experiment: Toxicity in mouse L1210 cells implanted CDF1 mouse assessed as survivors on day 5 at 3.2 mg/kg, ip qd for 1 to 5 days; format: organism-based; design: dose 3.2 mg/kg, route intraperitoneal; details: in vivo
[24] = test system: Mus musculus; experiment: Toxicity in mouse L1210 cells implanted CDF1 mouse assessed as survivors on day 5 at 1.6 mg/kg, ip qd for 1 to 5 days; format: organism-based; design: dose 1.6 mg/kg, route intraperitoneal; details: in vivo
[25] = test system: Mus musculus; experiment: Toxicity in mouse L1210 cells implanted CDF1 mouse assessed as survivors on day 5 at 0.8 mg/kg, ip qd for 1 to 5 days; format: organism-based; design: dose 0.8 mg/kg, route intraperitoneal; details: in vivo
[26] = test system: Mus musculus; experiment: Toxicity in mouse L1210 cells implanted CDF1 mouse assessed as survivors on day 5 at 0.4 mg/kg, ip qd for 1 to 5 days; format: organism-based; design: dose 0.4 mg/kg, route intraperitoneal; details: in vivo
[27] = test system: Mus musculus; experiment: Toxicity in mouse L1210 cells implanted CDF1 mouse assessed as survivors on day 5 at 0.2 mg/kg, ip qd for 1 to 5 days; format: organism-based; design: dose 0.2 mg/kg, route intraperitoneal; details: in vivo
[28] = test system: L1210; experiment: Antitumor activity against mouse L1210 cells implanted in CDF1 mouse at 0.2 mg/kg, ip qd for 1 to 5 days relative to control; format: functional; details: route intraperitoneal

## CC[C@@]1(O)C[C@H](O[C@H]2C[C@H](NC)[C@H](O[C@H]3C[C@H](O)[C@H](O)[C@H](C)O3)[C@H](C)O2)c2c(cc3c(c2O)C(=O)c2c(O)ccc(O)c2C3=O)[C@H]1C(=O)OC [SCHAUNARDIMYCIN]
[1]
  Activity: 0.7 g
[2]
  Activity: 2.5 g
[3]
  Activity: 3.2 g
[4]
  weight gain: 2.7 g
[5]
  weight gain: 2.8 g
[6]
  weight gain: 2.8 g
[7]
  weight gain: 2.5 g
[8]
  Activity: 1.6 g
[9]
  Activity: 2.8 g
[10]
  weight gain: 3 g
[11]
  weight gain: 3.5 g
[12]
  weight gain: 2.6 g
[13]
  weight gain: 2.6 g
[14]
  Activity: Active
[15]
  Activity: Active
[16]
  Activity: Active
[17]
  Activity: Active
[18]
  Activity: Active
[19]
  Activity: Active
[20]
  Activity: Active
[21]
  Activity: Active
[22]
  Activity: Active
[23]
  Activity: Active
[24]
  Activity: Active
[25]
  Activity: Active
[26]
  Activity: Active
[27]
  Activity: Active
[28]
  T/C: 117%
